Source: patent US8486995B2, “Acaricidal active substance combinations” (priority 2007, dated 2013)
≈ marks a conversion by molar mass, not a printed value.

Columns and labels:
Type in all cases: in vivo
[1] = system: common spider mite (Tetranychus urticae); test: Tetranychus urticae test (OP-resistant; sprayed cucumbers); conditions: single active substance
Procedure: Tetranychus urticae Test (OP-Resistant)
(§1) Solvent: 7 parts by weight of dimethylformamide
(§2) Emulsifier: 2 parts by weight of alkylaryl polyglycol ether
(§3) To prepare a suitable preparation of active substance, 1 part by weight of active substance is mixed with the stated amounts of solvent and emulsifier, and the concentrate is diluted with water to the desired concentrations.
Cucumbers (Cucumis sativus) which are severely infected with the common spider mite (Tetranychus urticae) are sprayed with the active substance preparation at the desired concentration.
(§4) After the desired period of time, the destruction is determined in %. In this context, 100% means that all spider mites have been destroyed; 0% means that no spider mites have been destroyed.

[2] = system: fruit tree spider mite (Panonychus ulmi); test: Panonychus ulmi test (sprayed plum cuttings); conditions: single active substance
Procedure: as §1, §2, §3
Plum cuttings (Prunus domestica) which are infected with a mixed population of the fruit tree spider mite (Panonychus ulmi) are sprayed with the active substance preparation at the desired concentration.
as §4

[3] = system: citrus spider mite (Panonychus citri); test: Panonychus citri test (sprayed citrus plants); conditions: single active substance; for LC50: Panonychus citri, in Citrus x limon, 24 h, after 1 d, read-out: LC 50 in mg/l after 1d; for LC 50 in mg/l after 1d: Citrus limon
Procedure: as §1, §2, §3
Citrus plants (Citrus limon) which are infected with a mixed population of the citrus spider mite (Panonychus citri) are sprayed with the active substance preparation at the desired concentration.
as §4

| Molecule | Destruction in % after 6d ([1]; 0.16 ppm, cucumbers) | Destruction in % after 2d ([2]; 0.8 ppm, plum cuttings) | LC50 [3] | LC 50 in mg/l after 1d [3] | Destruction in % after 6d ([1]; 0.032 ppm) | Destruction in % after 2d ([2]; 4 ppm) | Destruction in % after 2d ([2]; 0.16 ppm) |
| --- | --- | --- | --- | --- | --- | --- | --- |
| COc1ccc(-c2ccccc2)cc1NNC(=O)OC(C)C [Bifenazate (II), bifenazate] | 15% | 10% | – | – | – | – | – |
| CC(C)(C)c1ccc(CCOc2ncnc3ccccc23)cc1 [Fenazaquin (V), fenazaquin] | 0% | 0% | 10.2 mg/L (≈ 33.3 µM) | – | – | – | – |
| CC(C)(C)c1ccc(CSc2cnn(C(C)(C)C)c(=O)c2Cl)cc1 [Pyridaben (IV), pyridaben] | – | – | – | 31.41 mg/L (≈ 86.1 µM) | – | – | – |
| CCC(C)(C)C(=O)OC1=C(c2ccc(Cl)cc2Cl)C(=O)OC12CCCCC2 [Spirodiclofen (I), Spirodiclofen] | 25% | 5% | 12.3 mg/L (≈ 29.8 µM) | – | 15% | 15% | – |
| abamectin [Abamectin (VI)] | – | – | – | 1.0054 mg/L | – | – | 0% |
